Experimental data from article PMC6600393, “Synthesis and Cytostatic Effect of 3’-deoxy-3’-C-Sulfanylmethyl Nucleoside Derivatives with D-xylo Configuration” (Molecules, 2019).
“Also recorded” adds a separate entry of the source.

Columns and labels:
[1] = tested on: SCC-VII (mouse squamous carcinoma) cell line; assay: MTT cell viability assay on SCC-VII cells; assay type: cell-based; conditions: for SI (selectivity index): HaCaT IC50/SCC IC50; for SCC IC50: MTT, 48 h incubation, 5000 cells/well, '-' = no cytotoxicity at 20 µg/mL; for IC50: Mus musculus, 48 h
Description: (§1) For the investigation of the cytotoxic effect of nucleoside analogues we used healthy human keratinocyte (HaCaT) and tumorous squamous carcinoma SCC-VII cell lines. In the experiments, a standard citotoxicity assay, the MTT assay, was used in a 96-well plate. Importantly, different cell numbers were used in the case of the two different cell lines. The HaCaT cells were seeded 10^4/well concentration while the SCC-VII cells were seeded 5000/well concentration on the plate. In both cases the cells were treated with the nucleoside analogues at ~50% confluence.
SCC-VII is a carcinoma tumor that originally arose in the abdominal wall of C3H mice in Dr. Herman Suit’s laboratory at Harvard University, Boston, Massachusetts. SCC VII cells were grown in Dulbecco’s Modified Eagle’s Medium Nutrient Mixture (DMEM-HAM’S F12) (Sigma-Aldrich) supplemented with 2 mM L-glutamine, 23 mM NaHCO3, 100 U/mL penicillin, 100 U/mL streptomycin 1% non-essential amino acids and 10% fetal bovine serum.
(§2) Cell cultures had been kept under the same conditions during the experiments. Cells were stored at 37 °C, 95% humidity, and 5% CO2 in an incubator. During the MTT-assay, different starter cell number was used because of the cell cycle differences; HaCaT was started with 10.000/well meanwhile SCC VII with 5000/well. After passage, 24 h was assured for the cells to the adhesion. Then incubated with the compounds for 48 h. The experiments were performed in 96 well plates.
(§3) For the dilution of different concentrations of nucleoside analogues were prepared with DMSO 1% (v/v) and DMEM / DMEM-F12/Ham’s F12 cell culture medium.
(§4) After three days of incubation in the cell culture flask, cells were trypsinised into single cell suspensions. Aliquots (200 μL) of each cell suspension were placed in wells of 96-well-plates (Biocenter, Szeged, Hungary). Preliminary tests were conducted with cell numbers 5000 (SCC-VII) and 10,000 (HaCaT) per well. We have been tested five concentrations of each nucleoside analogues (20-10-5-2.5-1.25 µg/mL). The nucleoside analogues were dissolved in DMSO (1 v/v%) and DMEM/ DMEM-F12/Ham’s F12 were added to the wells to produce the required concentrations and the cells were similarly incubated for a further 48 h.
(§5) MTT (Sigma Aldrich, Budapest, Hungary) solution (0.5 mg/mL in PBS) 100 µL was added to each well. The plates were incubated for 1–2 h at 37 ^◦C, the wells aspirated, and MTT formazan extracted with 100 µL of DMSO aided by gentle agitation on a shaker. After 10 min at room temperature, the absorbances were read at 570 nm by an automatic plate reader (WALLAC Victor 2 1420 spectrophotometer), the instrument having been blanked beforehand on a row to which cells had not been added. Percentage viability (respiratory competence) of the population of cells in each well was expressed as: (Absorbance of treated cells/Absorbance of control cells) × 100. IC50 values of the nucleoside analogues were determined by Graphpad.

[2] = tested on: HaCaT (human keratinocyte) cell line; assay: MTT cell viability assay on HaCaT cells; assay type: cell-based; conditions: for IC50: Homo sapiens, HaCaT, 48 h; for HaCaT IC50: MTT, 48 h incubation, 10,000 cells/well, '-' = no cytotoxicity at 20 µg/mL
Description: as §1
The HaCaT cell line was derived from human skin, the cells spontaneously transformed in vitro during long time incubation. Cells were cultured in DMEM medium (Biocenter, Szeged, Hungary) containing 10% fetal bovine serum (FBS, Hyclon, Logan, UT) and 1% antibiotic-antimycotic mix (Penicillin–Streptomycin–Neomycin).
as §2, §3, §4, §5

SMILES	SI (selectivity index) [1]	SCC IC50 [1]	IC50 [1]	IC50 [2]	HaCaT IC50 [2]
CCCSC[C@@H]1[C@@H](O[Si](C)(C)C(C)(C)C)[C@H](n2cc(C)c(=O)[nH]c2=O)O[C@@H]1CO[Si](C)(C)C(C)(C)C [Compound 5, 1-[3’-Deoxy-3’-C-(n-propylsulfanylmethyl)-2’,5’-di-O-(tert-butyldimethylsilyl)-β-D-xylofuranosyl]-thymine]	1.46	remarkable toxic effect	15.2 ± 1 µM	22.2 ± 1.7 µM	remarkable toxic effect
CCSC[C@@H]1[C@@H](O)[C@H](n2cc(C)c(=O)[nH]c2=O)O[C@@H]1CO [Compound 19, 1-[3’-Deoxy-3’-C-(n-ethylsulfanylmethyl)-β-D-xylofuranosyl]-thymine]	–	did not show any cytotoxic activity; also recorded: no activity	> 20 µg/mL	> 20 µg/mL	did not show any cytotoxic activity; also recorded: no activity
CCCSC[C@@H]1[C@@H](O[Si](C)(C)C(C)(C)C)[C@H](n2ccc(=O)[nH]c2=O)O[C@@H]1CO[Si](C)(C)C(C)(C)C [Compound 2]	1.07	remarkable toxic effect	11.8 ± 0.22 µM	12.6 ± 0.22 µM	remarkable toxic effect
Cc1cn([C@@H]2O[C@H](CO[Si](C)(C)C(C)(C)C)[C@@H](O)[C@H]2O[Si](C)(C)C(C)(C)C)c(=O)[nH]c1=O [Compound 6T, 2’,5’-di-O-tert-butyldimethylsilyl-ribothymidine]	0.83	remarkable toxicity	18.8 ± 0.74 µM	15.6 ± 4.45 µM	remarkable toxicity
CCCCSC[C@@H]1[C@@H](O[Si](C)(C)C(C)(C)C)[C@H](n2ccc(=O)[nH]c2=O)O[C@@H]1CO[Si](C)(C)C(C)(C)C [Compound 18, 1-[3’-Deoxy-3’-C-(n-butylsulfanylmethyl)-2’,5’-di-O-(tert-butyldimethylsilyl)-β-D-xylofuranosyl]-uracil]	1.32	–	10.9 ± 0.18 µM	14.4 ± 1.59 µM	–
CC(=O)OC[C@H]1O[C@@H](SC[C@@H]2[C@@H](O[Si](C)(C)C(C)(C)C)[C@H](n3cc(C)c(=O)[nH]c3=O)O[C@@H]2CO[Si](C)(C)C(C)(C)C)[C@H](OC(C)=O)[C@@H](OC(C)=O)[C@@H]1OC(C)=O [Compound 3]	–	no cytotoxic effect; also recorded: no cytotoxicity; also recorded: complete loss of activity	> 20 µg/mL	22.4 ± 2.91 µM	quite toxic
CC(=O)OC[C@H]1O[C@@H](SC[C@@H]2[C@@H](O[Si](C)(C)C(C)(C)C)[C@H](n3ccc(=O)[nH]c3=O)O[C@@H]2CO[Si](C)(C)C(C)(C)C)[C@H](OC(C)=O)[C@@H](OC(C)=O)[C@@H]1OC(C)=O [Compound 1]	–	no cytotoxic effect; also recorded: no cytotoxicity; also recorded: complete loss of activity	> 20 µg/mL	> 20 µg/mL	no cytotoxic effect; also recorded: no cytotoxicity; also recorded: complete loss of activity
CCCCCCSC[C@@H]1[C@@H](O[Si](C)(C)C(C)(C)C)[C@H](n2cc(C)c(=O)[nH]c2=O)O[C@@H]1CO[Si](C)(C)C(C)(C)C [Compound 13, 1-[3’-Deoxy-3’-C-(n-hexylsulfanylmethyl)-2’,5’-di-O-(tert-butyldimethylsilyl)-β-D-xylofuranosyl]-thymine]	1.44	–	15.9 ± 0.32 µM	22.9 ± 0.57 µM	–
Cc1cn([C@@H]2O[C@H](CO[Si](C)(C)C(C)(C)C)[C@H](CSC(C)C)[C@H]2O[Si](C)(C)C(C)(C)C)c(=O)[nH]c1=O [Compound 9, 1-[3’-Deoxy-3’-C-(i-propylsulfanylmethyl)-2’,5’-di-O-(tert-butyldimethylsilyl)-β-D-xylofuranosyl]-thymine]	1.49	–	15.2 ± 0.48 µM	22.7 ± 1.34 µM	–
CC(=O)OCC1OC(SCC2C(CO[Si](C)(C)C(C)(C)C)OC(n3cc(C)c(=O)[nH]c3=O)C2O[Si](C)(C)C(C)(C)C)C(OC(C)=O)C(OC(C)=O)C1OC(C)=O (stereo not drawn) [Compound 4]	–	no cytotoxic effect; also recorded: no cytotoxicity; also recorded: complete loss of activity	> 20 µg/mL	> 20 µg/mL	no cytotoxic effect; also recorded: no cytotoxicity; also recorded: complete loss of activity
CCSC[C@@H]1[C@@H](O[Si](C)(C)C(C)(C)C)[C@H](n2cc(C)c(=O)[nH]c2=O)O[C@@H]1CO[Si](C)(C)C(C)(C)C [Compound 8, 1-[3’-Deoxy-3’-C-(ethylsulfanylmethyl)-2’,5’-di-O-(tert-butyldimethylsilyl)-β-D-xylofuranosyl]-thymine]	1.09	–	15.5 ± 0.59 µM	16.9 ± 0.55 µM	–
CCCCCCCCCCCCSC[C@@H]1[C@@H](O[Si](C)(C)C(C)(C)C)[C@H](n2cc(C)c(=O)[nH]c2=O)O[C@@H]1CO[Si](C)(C)C(C)(C)C [Compound 15, 1-[3’-Deoxy-3’-C-(n-dodecylsulfanylmethyl)-2’,5’-di-O-(tert-butyldimethylsilyl)-β-D-xylofuranosyl]-thymine]	–	complete loss of activity	> 20 µg/mL	> 20 µg/mL	complete loss of activity
Cc1cn([C@@H]2O[C@H](CO[Si](C)(C)C(C)(C)C)[C@H](CSCC(C)C)[C@H]2O[Si](C)(C)C(C)(C)C)c(=O)[nH]c1=O [Compound 11, 1-[3’-Deoxy-3’-C-(i-butylsulfanylmethyl)-2’,5’-di-O-(tert-butyldimethylsilyl)-β-D-xylofuranosyl]-thymine]	0.66	–	23.5 ± 0.12 µM	15.5 ± 2.14 µM	–
Cc1cn([C@@H]2O[C@H](CO[Si](C)(C)C(C)(C)C)[C@H](CSC(C)(C)C)[C@H]2O[Si](C)(C)C(C)(C)C)c(=O)[nH]c1=O [Compound 12, 1-[3’-Deoxy-3’-C-(t-butylsulfanylmethyl)-2’,5’-di-O-(tert-butyldimethylsilyl)-β-D-xylofuranosyl]-thymine]	–	–	31.1 ± 0.79 µM	> 34.9 µM	–
Cc1cn([C@@H]2O[C@H](CO[Si](C)(C)C(C)(C)C)[C@H](CSCc3ccccc3)[C@H]2O[Si](C)(C)C(C)(C)C)c(=O)[nH]c1=O [Compound 16, 1-[3’-Deoxy-3’-C-(benzylsulfanylmethyl)-2’,5’-di-O-(tert-butyldimethylsilyl)-β-D-xylofuranosyl]-thymine]	0.98	–	14.6 ± 0.19 µM	14.3 ± 0.36 µM	–
Cc1cn([C@@H]2O[C@H](CO[Si](C)(C)C(C)(C)C)[C@H](CSCCO)[C@H]2O[Si](C)(C)C(C)(C)C)c(=O)[nH]c1=O [Compound 17, 1-[3’-Deoxy-3’-C-(2-hydroxyethylsulfanylmethyl)-2’,5’-di-O-(tert-butyldimethylsilyl)-β-D-xylofuranosyl]-thymine]	0.91	–	16 ± 0.17 µM	14.6 ± 0.82 µM	–
CCCCCCCCSC[C@@H]1[C@@H](O[Si](C)(C)C(C)(C)C)[C@H](n2cc(C)c(=O)[nH]c2=O)O[C@@H]1CO[Si](C)(C)C(C)(C)C [Compound 14, 1-[3’-Deoxy-3’-C-(n-octylsulfanylmethyl)-2’,5’-di-O-(tert-butyldimethylsilyl)-β-D-xylofuranosyl]-thymine]	1.02	–	26 ± 0.76 µM	26.4 ± 0.37 µM	–
CN(Cc1cnc2nc(N)nc(N)c2n1)c1ccc(C(=O)N[C@@H](CCC(=O)O)C(=O)O)cc1 [Methotrexate, reference compound]	–	–	216 ± 2.33 µM	290.4 ± 2.76 µM	–
